According to article PMC10058894, “Bioactive C21 Steroidal Glycosides from Euphorbia kansui Promoted HepG2 Cell Apoptosis via the Degradation of ATP1A1 and Inhibited Macrophage Polarization under Co-Cultivation” (Molecules, 2023):

Assays:
Assay type in all cases: cell-based
Huh-7 cells = assay: MTT assay, cell viability of Huh-7 cells; conditions: Homo sapiens, Huh-7, read-out: Huh-7 IC50
From the text: 2. The anti-proliferation of compound 5 on Huh-7 cells
We tested another hepatoma cell line (Huh-7) to validate effect of compound 5. L02 (normal hepatocytes), HepG2 and Hub-7 cells were used to discuss the effect of 5. […]
of 5 on Huh-7 cell was (24.49±[…]) μM (Table S1). The morphology and apoptosis of the cells by reversed microscope and flow cytometry, respectively.
Second, the expression and phosphorylation of ATP1A1 were detected by Western blot analysis in L02, HepG2 and Huh-7 cells. Compared with L02 group, the expression of ATP1A1 was higher in HepG2 and Huh-7 cells, but there was no significant difference in the phosphorylation of ATP1A1 (Figure […]
At last, the effect of 5 on the expression and the phosphorylation of ATP1A1 in Huh-7 cells was […]
the phosphorylation of ATP1A1. The result was consistent with that observed in HepG2 cells (Figure […]
Table S1 Cell viability of Huh-7 cell treated by compound 5

HepG2 cells [1] = assay: Scratch test and colony formation assay; conditions: scratch 36 h, colony 7 days, 12.5 and 25 μmol
Description: HepG2 cells (8 × 10^4 cells/well) were incubated in 24-well plates for 24 h. Cells were treated with a compound for 36 h after making a uniform straight from scratch with a 200 μL pipette tip. Cell motility was detected by measuring the wound closure distance after 36 h. Images were recorded using an inverted microscope (Olympus CK40, Shinjuku, Japan). HepG2 cells (600 cells/well) were incubated in 6-well plates and treated with the compound. One week later, visible colonies had formed. Then, the colonies were fixed with 4% polymethanol paraformaldehyde and stained with crystal violet (0.005%). The number of colonies was calculated by using a microscope.

HepG2 cells [2] = assay: Fluorescence staining for apoptosis (Hoechst 33342, Annexin V/PI)
Description: HepG2 cells (4 × 10^5 cells/well) were incubated in confocal dishes with DMEM for 24 h and then treated with compounds for 48 h. Then, the cells were treated with 0.1% Triton X-100 for 10 min and washed with PBS five times. Finally, the cells were dyed with anti-ATP1A1 at 4 °C overnight. Nuclear staining with DAPI (1 μg∙mL^−1) was added for 7 min in the dark, and the cells were washed. The stained images were captured under a laser scanning confocal microscope (Nikon A1 AIR MP+, Tokyo, Japan). HepG2 cells (5 × 10^5 cells/well) were incubated in 6-well plates in complete DMEM. Cells were treated with compounds for 24 h. Then, the cells were stained with Annexin V/PI for 30 min at 4 °C in the dark, and apoptosis analysis was carried out by laser scanning confocal microscopy.

C[C@H](O)[C@]1(O)CC[C@@]2(O)[C@]1(C)[C@H](OC(=O)/C=C/c1ccccc1)C[C@@H]1[C@@]3(C)CC[C@H](O[C@H]4C[C@H](O)[C@H](O)[C@@H](C)O4)CC3=CC[C@]12O [Compound 5, Cynsaccatol L]
IC50 (Huh-7 cells): 24.5 ± 2.33 µM | cell migration and proliferation (scratch and colony formation) (HepG2 cells [1]): greatly inhibited | nuclear changes (Hoechst 33342 staining) (HepG2 cells [2]): significantly induce nuclear changes | nuclear and cell membrane morphological changes (Annexin V/PI staining) (HepG2 cells [2]; as low as 12.5 μmol∙L−1): significantly induce nuclear and cell membrane morphological changes
